Molecules are shown by their SMILES.

The target of one experiment is IDH1R132C (Homo sapiens (Human), UniProt O75874, R132C). As to the kind of experiment: Inhibitory activity against IDH1R132C enzyme (NADPH detection, WST-8). It counts as biochemical. The conditions noted are these: 10 nM, residual NADPH detected with WST-8, read-out: Test Example 1 IDH1 R132C IC50. On the procedure:
After transformation of Rosetta 2 (DE3) E. coli, the expression of the protein was induced with IPTG.
While NADPH-derived fluorescence was occasionally monitored, the reaction was terminated by the addition of 5 μL of 0.5 M EDTA before consumption of NADPH. 5 μL of WST-8 reagent (Dojindo Laboratories, #CK04) was further added and mixed therewith. 15 minutes later, the absorbance at 450 nm was measured using a plate reader (PerkinElmer, Inc., EnVision). The observed absorbance value reflects the amount of residual NADPH. From the absorbance data, the enzyme inhibitory activity of each compound at each concentration was calculated and analyzed using medical statistical analysis software GraphPad Prism to calculate an IC50 value.
A general note: Tetrazolium assays rely on reduction of a dye to a coloured formazan, in cell work by metabolically active cells.

Experiment [1] deals with HT-1080 cells expressing IDH1R132C. The experiment in a line: 2-HG production inhibitory activity using HT1080 cell. The settings on record: Homo sapiens, HT-1080; 2-HG production, HT1080 cells; read-out: Test Example 3 IC50. It counts as cell-based, human. On the procedure:
Then, 100 μL of growth medium B was added to each well, further 25 μL of a solution of each compound diluted to a predetermined concentration with growth medium B was added to each well, and the cells were incubated at 37° C. for 2 days under 5% CO2. […] Then, 150 μL of ultrapure water was further added to each well, and the mixture was stirred by pipetting and stored at −20° C.
The preserved solutions were thawed at room temperature.

Sequence of IDH1R132C (O75874 whole entry R132C): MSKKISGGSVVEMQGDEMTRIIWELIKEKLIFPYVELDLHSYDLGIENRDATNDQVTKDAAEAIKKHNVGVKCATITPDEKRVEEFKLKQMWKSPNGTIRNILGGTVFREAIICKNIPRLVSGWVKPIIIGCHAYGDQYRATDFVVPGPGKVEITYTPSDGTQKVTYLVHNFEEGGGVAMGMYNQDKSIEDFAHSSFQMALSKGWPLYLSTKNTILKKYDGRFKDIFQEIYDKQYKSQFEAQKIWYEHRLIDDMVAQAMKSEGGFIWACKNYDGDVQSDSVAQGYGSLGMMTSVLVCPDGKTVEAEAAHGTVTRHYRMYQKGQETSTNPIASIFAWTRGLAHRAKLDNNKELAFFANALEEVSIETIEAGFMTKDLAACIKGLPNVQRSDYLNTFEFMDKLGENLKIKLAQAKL

In the case of `CC1(c2onc(-c3c(Cl)cccc3Cl)c2C(=O)n2ccc3c(/C=C/C(=O)O)cccc32)COC1` [Example 75, (2E)-3-(1-{[3-(2,6-Dichlorophenyl)-5-(3-methyloxetan-3-yl)-1,2-oxazol-4-yl]carbonyl}-1H-indol-4-yl)prop-2-enoic acid], the half-inhibitory concentration (IC50) – broadly, the concentration that gives 50% inhibition – worked out at 118 nM on IDH1R132C and 138 nM in experiment [1].
As to `COC1(c2onc(-c3c(Cl)cccc3Cl)c2C(=O)n2ccc3c(/C=C/C(=O)O)cccc32)COC1` [Example 76, (2E)-3-(1-{[3-(2,6-Dichlorophenyl)-5-(3-methoxyoxetan-3-yl)-1,2-oxazol-4-yl]carbonyl}-1H-indol-4-yl)prop-2-enoic acid], the 50% inhibitory concentration (IC50) was found to be 94 nM on IDH1R132C and 118 nM in experiment [1].
For the compound `CC1(c2onc(-c3c(Cl)cccc3Cl)c2C(=O)n2ccc3c(/C=C/C(=O)O)cccc32)CCO1` (centres unmarked) [Example 77, (2E)-3-(1-{[3-(2,6-Dichlorophenyl)-5-(2-methyloxetan-2-yl)-1,2-oxazol-4-yl]carbonyl}-1H-indol-4-yl)prop-2-enoic acid], the concentration for half-maximal inhibition (IC50) on IDH1R132C came out at 94 nM; in experiment [1], 428 nM.
In the case of `COCC1(c2onc(-c3c(Cl)cc(Cl)cc3Cl)c2C(=O)n2cc(C)c3c(/C=C/C(=O)O)cccc32)CCC1` [Example 80, (2E)-3-(1-{[5-[1-(Methoxymethyl)cyclobutyl]-3-(2,4,6-trichlorophenyl)-1,2-oxazol-4-yl]carbonyl}-3-methyl-1H-indol-4-yl)prop-2-enoic acid], the half-maximal inhibitory concentration (IC50) at IDH1R132C was determined as 335 nM; in experiment [1], 99 nM.
Consider `Cc1cn(C(=O)c2c(-c3c(Cl)cc(Cl)cc3Cl)noc2C2(N(C)C)CC2)c2cccc(/C=C/C(=O)O)c12` [Example 82, (2E)-3-(1-{[5-[1-(Dimethylamino)cyclopropyl]-3-(2,4,6-trichlorophenyl)-1,2-oxazol-4-yl]carbonyl}-3-methyl-1H-indol-4-yl)prop-2-enoic acid], for which the IC50 at IDH1R132C was 96 nM; in experiment [1], 10 nM.
Taken in the same sequence, the figures for `CNC(C)(C)c1onc(-c2c(Cl)cc(Cl)cc2Cl)c1C(=O)n1cc(C)c2c(/C=C/C(=O)O)cccc21` [Example 84, (2E)-3-[3-Methyl-1-({5-[2-(methylamino)propan-2-yl]-3-(2,4,6-trichlorophenyl)-1,2-oxazol-4-yl]carbonyl}-1H-indol-4-yl)prop-2-enoic acid] were 80 nM and 15 nM.
Taken in the same sequence, the figures for `CNC(C)(C)c1onc(-c2c(Cl)cc(Cl)cc2Cl)c1C(=O)n1cc2c3c(cccc31)/C(=C/C(=O)O)CC2` [Example 85, (2E)-[1-({5-[2-(Methylamino)propan-2-yl]-3-(2,4,6-trichlorophenyl)-1,2-oxazol-4-yl}carbonyl)-3,4-dihydrobenzo[cd]indol-5(1H)-ylidene]ethanoic acid] were 99 nM and 9 nM.
Turning to `CNC1(c2onc(-c3c(Cl)cc(Cl)cc3Cl)c2C(=O)n2cc3c4c(cccc42)/C(=C/C(=O)O)CC3)CC1` [Example 86, (2E)-[1-({5-[1-(Methylamino)cyclopropyl]-3-(2,4,6-trichlorophenyl)-1,2-oxazol-4-yl}carbonyl)-3,4-dihydrobenzo[cd]indol-5(1H)-ylidene]ethanoic acid], the IC50 was found to be 79 nM on IDH1R132C and 33 nM in experiment [1].
For `Cc1cn(C(=O)c2c(-c3c(Cl)cc(Cl)cc3Cl)noc2C2(CN(C)C)CCC2)c2cccc(/C=C/C(=O)O)c12` [Example 88, (2E)-3-(1-{[5-{1-[(Dimethylamino)methyl]cyclobutyl}-3-(2,4,6-trichlorophenyl)-1,2-oxazol-4-yl]carbonyl}-3-methyl-1H-indol-4-yl)prop-2-enoic acid] the same measures were 158 nM and 61 nM.
Taken in the same sequence, the figures for `Cc1cn(C(=O)c2c(-c3c(Cl)cc(Cl)cc3Cl)noc2C2(C(=O)N(C)C)CCC2)c2cccc(/C=C/C(=O)O)c12` [Example 89, (2E)-3-(1-{[5-[1-(Dimethylcarbamoyl)cyclobutyl]-3-(2,4,6-trichlorophenyl)-1,2-oxazol-4-yl]carbonyl}-3-methyl-1H-indol-4-yl)prop-2-enoic acid] were 185 nM and 37 nM.
